Measurements from PubChem BioAssay (NCI).
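Method: 48-hour compound exposure of cells in 96-well plates, five concentrations, linear interpolation of endpoints. GI50 is the concentration that inhibits growth by half. TGI denotes the concentration required for complete inhibition of growth.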

Assays:
Assay in all cases: inhibition of tumour cell growth, NCI panel, 48 h
[1] = system: CAKI-1 renal
[2] = system: HL-60(TB) leukemia
[3] = system: OVCAR-8 ovarian
[4] = system: SK-MEL-2 melanoma
[5] = system: SK-OV-3 ovarian
[6] = system: SN12C renal
[7] = system: SNB-19 CNS
[8] = system: SR leukemia

| SMILES | GI50 [1] [µM] | TGI [1] [µM] | GI50 [2] [µM] | TGI [2] [µM] | GI50 [3] [µM] | TGI [3] [µM] | GI50 [4] [µM] | TGI [4] [µM] | GI50 [5] [µM] | TGI [5] [µM] | GI50 [6] [µM] | TGI [6] [µM] | GI50 [7] [µM] | TGI [7] [µM] | GI50 [8] [µM] | TGI [8] [µM] |
| --- | --- | --- | --- | --- | --- | --- | --- | --- | --- | --- | --- | --- | --- | --- | --- | --- |
| CC1=C(Nc2ccc(N3CCN(C)CC3)cc2)C(=O)c2cncnc2C1=O | 3.27 | 14.2 | 2.5 | 6.11 | 2.28 | 6.28 | 16 | 42 | 16.7 | 35.3 | 2.02 | 4.48 | 17.2 | 37.2 | 3.22 | > 100 |
| COc1cc2cc(Oc3ccc(NC(=O)Nc4ccc(Cl)c(Cl)c4)cc3)c(C)nc2cc1OC | 2.12 | 6.65 | 2.76 | 6.75 | 3.54 | 12.9 | 3 | 6.54 | 7.56 | 26.4 | 3.39 | 20.5 | 4.26 | 24 | 3.1 | 10.3 |
| Cn1cc(C2=C(c3cn(CCCCCSC(=N)N)c4ccccc34)C(=O)NC2=O)c2ccccc21 | 4.03 | 7.94 | 3.62 | 7.85 | 3.61 | 10.4 | 3.13 | 6.43 | 2.99 | 6.16 | 2.67 | 6.01 | 3.52 | 6.82 | 0.79 | 2.24 |
| C#CCOc1ccc2ncnc(Nc3ccc(NC(=O)C=C)cc3)c2c1 | > 100 | > 100 | 4.97 | 32.5 | 45.8 | > 100 | > 100 | > 100 | > 100 | > 100 | 44 | > 100 | > 100 | > 100 | 3.47 | 57.4 |
| COc1ccc(N(C)c2nc(N)nc3sc4c(c23)CCCC4)cc1 | < 0.0137 | 15.4 | < 0.01 | 0.0101 | < 0.0171 | 14.9 | 0.0441 | 17.2 | < 0.013 | 14.2 | < 0.01 | 14 | < 0.01 | 16.9 | < 0.01 | 11 |
| COc1ccc(/C(C#N)=C2C=C/C(=N/O)c3ccccc3\2)cc1 | 0.608 | 26.1 | 0.254 | 0.688 | 0.327 | 13.1 | 0.415 | 12.3 | 0.301 | 3.4 | 0.418 | 13.5 | 2.8 | 29.6 | 0.133 | 5.06 |
| CN1CSC(=S)N(Cc2ccccc2)C1 | 34.6 | > 100 | 4.03 | 97.3 | 25.2 | > 100 | 4.64 | 18.2 | > 100 | > 100 | 15.4 | 35.7 | 77.1 | > 100 | 2.11 | > 100 |
